{
  "source": "paper PMC12270677",
  "about": "“Topological isomers of a potent wound healing peptide: Structural insights and implications for bioactivity” (The Journal of Biological Chemistry, 2025)",
  "key": {"[1]": {"tested_on": "LX-2 human hepatic stellate cell line", "assay": "Real-time cell proliferation assay (xCELLigence)", "conditions": "for EC50: read-out: EC50, LX-2 cell proliferation, xCELLigence SP, 3000 cells per well, serum-free medium, single treatment, proliferation measured 4 days after treatment, relative to scrambled peptide control GSP, variable slope dose-response fit, six replicates per treatment; for Proliferative response of LX-2 cells at concentrations up to 400 nM: 4 days after single treatment, relative to GSP, ANOVA against peptide control", "description": "Real-time cell proliferation assays using xCELLigence technology were performed to assess the effects of GRN-P4A isomers and the mutant peptide GRN-L1m on the human hepatic stellate cell line LX-2.\nFigure 7 Cell proliferation assay of GRN-P4A isomers and GRN-L1m on human hepatic stellate cells (LX-2). The five peptides were tested across a concentration range of 0.16 nM to 800 nM using the LX-2 human hepatic stellate cell line. Two negative controls were included: serum-free media (SFM) and a scrambled GRN-P4A peptide (GSP). The graphs display variable slope dose–response curves fitted to proliferation data measured 4 days after a single treatment application. […] Proliferation is expressed relative to the scrambled peptide control (GSP) and presented as mean ± SEM. Statistical significance was assessed using one-way ANOVA against the peptide control. ∗ = […], ∗∗ = p < 0.01, ∗∗∗ = p < 0.001, ∗∗∗∗ = p < 0.0001.\nThe LX-2 human hepatic stellate cell line was generously donated by Dr Lionel Hebbard. Cells were cultured and maintained in Dulbecco’s Modified Eagle Medium/Nutrient Mixture F-12 (DMEM/F12) with GlutaMAX (Gibco) with 2 × antibiotic/antimycotic solution (penicillin, streptomycin, and amphotericin B), supplemented with 2% fetal bovine serum (FBS) (Gibco), at 37°C and 5% CO2. For the negative control, cells were treated with scrambled granulin peptide (GSP) or serum free media diluent. Dried peptide powder was resuspended in Milli-Q water to 170 μM and diluted in serum-free DMEM/F12 media.\nCell proliferation was monitored in real time using the xCELLigence SP system (ACEA Biosciences), following previously established method ([37]). LX2 cells were seeded into a 96-well xCELLigence E-plate (Agilent) at a density of 3000 cells per well in 150 μl of medium, and placed in the xCELLigence system at 37°C with 5% CO2, for overnight monitoring ([38]). Treatments were applied in serum-free medium at 20 μl per well, achieving final concentrations of […] to 800 nM, with six replicates per treatment. The cell index (CI) was continuously monitored using the Real-Time Cell Analysis (RTCA) software (Agilent), with measurements taken every hour over 6 days following treatment. Cell indices were normalized to the baseline values prior to treatment, and cell proliferation was expressed as the relative number of cells compared to the negative control GRN-scrambled peptide (GSP). Statistical analysis was conducted using two-way ANOVA test with Holm-Sidak’s correction comparing controls to treatments at each timepoint with GraphPad Prism 9.3.1 (www.graphpad.com)."}, "[2]": {"assay": "NMR at three temperatures to assess interconversion of isomer 1 into isomer 2", "format": "physicochemical", "conditions": "αH secondary shifts at 283 K, 290 K and 310 K, 0.2 mM peptide in water/D2O", "description": "NMR spectra of isomer 1 were recorded at the three different temperatures of 290 K (standard conditions), 310 K (physiological temperature), and 283 K (lower temperature) to assess potential interconversion into isomer 2, the major oxidation product.\nLyophilized peptides were rehydrated in a mixture of 500 μl water and 50 μl D2O, to obtain a final concentration of 0.2 mM. NMR spectra were recorded at temperatures of 283, 290 and 310 K using a 600 MHz Bruker Avance III spectrometer (Bruker) equipped with a cryoprobe. Chemical shifts were referenced to external DSS (sodium trimethylsilylpropanesulfonate). Two-dimensional spectra included [^1H,^1H]-TOCSY, [^1H,^1H]-H/D exchange TOCSY, [^1H,^1H]-NOESY, [^1H,^1H]-COSY, [^1H,^1H]-exclusive correlation spectroscopy, [^1H,^13 C]-HSQC, and [^1H,^15 N]-HSQC with TOCSY and NOESY mixing times of 80 ms and 200 ms, respectively. NMR data processing and analysis were performed using TopSpin (Bruker), and peak assignments were made using CcpNMR Analysis (Collaborative Computing Project for NMR) based on the method outlined by Wuthrich ([28], [29]). Backbone torsion-angle restraints for phi and psi were predicted from ^1H and ^13C chemical-shift analyses, were predicted using TALOS-N ([30]). […] The αH secondary shifts were determined by subtracting random coil ^1H NMR chemical shifts ([19]) from the experimental αH chemical shifts. […]"}, "[3]": {"tested_on": "wound healing in a mouse model", "conditions": "compared with Regranex; cited from earlier work", "excerpt": "This study highlights the structural complexity and bioactivity of isomers in disulfide-rich peptides, with a focus on GRN-P4A. GRN-P4A is a mutant peptide derived from Ov-GRN12 − 35_3s, a truncated form of the liver fluke granulin Ov-GRN-1, known for its potent wound healing properties."}},
  "note": "Positions of bridges follow the written chain, without caps; N, C: chain ends. Residues, ends and D or L forms follow the SMILES beside them. No end group written: not given here.",
  "data": [
    {"compound": "CC(C)C[C@@H]1NC(=O)CNC(=O)[C@H](CCCNC(=N)N)NC(=O)[C@@H]2CSSC[C@@H](C(=O)O)NC(=O)[C@H](CSSC[C@@H]3NC(=O)[C@H]([C@@H](C)O)NC(=O)[C@H](Cc4ccc(O)cc4)NC(=O)[C@H](C(C)C)NC(=O)[C@H](C)NC(=O)[C@H](CC(=O)O)NC(=O)[C@@H]4CCCN4C(=O)[C@@H](N)CSSC[C@H](NC(=O)[C@H]([C@@H](C)O)NC(=O)[C@H](CCC(N)=O)NC(=O)CNC(=O)[C@@H]4CCCN4C(=O)[C@H](CCCNC(=N)N)NC3=O)C(=O)N2)NC(=O)CNC(=O)[C@H](Cc2ccc(O)cc2)NC(=O)CNC(=O)[C@H](Cc2c[nH]cn2)NC1=O", "note": "(single isomer, unassigned) [GRN-P4A isomer 2]", "values": [
      {"measurement": "EC50", "setting": "[1]; LX-2 cells", "value": 0.093, "unit": "µM"}
    ]},
    {"compound": "CC(C)C[C@@H]1NC(=O)CNC(=O)[C@H](CCCNC(=N)N)NC(=O)[C@@H]2CSSC[C@@H](C(=O)O)NC(=O)[C@H](CSSC[C@@H]3NC(=O)[C@H]([C@@H](C)O)NC(=O)[C@H](Cc4ccc(O)cc4)NC(=O)[C@H](C(C)C)NC(=O)[C@H](C)NC(=O)[C@H](CC(=O)O)NC(=O)CNC(=O)[C@@H](N)CSSC[C@H](NC(=O)[C@H]([C@@H](C)O)NC(=O)[C@H](CCC(N)=O)NC(=O)CNC(=O)[C@@H]4CCCN4C(=O)[C@H](CCCNC(=N)N)NC3=O)C(=O)N2)NC(=O)CNC(=O)[C@H](Cc2ccc(O)cc2)NC(=O)CNC(=O)[C@H](Cc2c[nH]cn2)NC1=O", "note": "[GRN-L1m] (H-CGDAVYTCRPGQTCCRGLHGYGCC-OH; disulfide 1-14, 8-23, 15-24)", "values": [
      {"measurement": "EC50", "setting": "[1]; LX-2 cells", "value": 0.318, "unit": "µM"}
    ]},
    {"compound": "CPDAVYTCRPGQTCCRGLHGYGCC (also: bicyclic or more (positions not given here)) [GRN-P4A isomer 1, Fully oxidized GRN-P4A topological isomer eluting first in RP-HPLC, mini-granulin fold]", "values": [
      {"measurement": "Conformational stability / interconversion into isomer 2 with temperature", "setting": "[2]; listed as Isomer 1", "value": "retained its structure across all tested temperatures"},
      {"measurement": "Conformational stability / interconversion into isomer 2 with temperature", "setting": "[2]; listed as isomer 1", "value": "no evidence of interconversion"},
      {"measurement": "Proliferative response of LX-2 cells at concentrations up to 400 nM", "setting": "[1]; xCELLigence", "value": "did not produce a statistically significant proliferative response"},
      {"measurement": "Proliferative response of LX-2 cells at concentrations up to 400 nM", "setting": "[1]; xCELLigence, listed as isomer 1", "value": "did not produce a statistically significant response"}
    ]},
    {"compound": "CPDAVYTCRPGQTCCRGLHGYGCC (also: bicyclic or more (positions not given here)) [GRN-P4A isomer 3]", "values": [
      {"measurement": "Cytotoxicity", "setting": "[1]; LX-2 cells, xCELLigence, statement in the Discussion, likely due to peptide aggregation", "value": "displayed cytotoxicity"},
      {"measurement": "Proliferative response of LX-2 cells at concentrations up to 400 nM", "setting": "[1]; xCELLigence, listed as isomer 3", "value": "did not produce a statistically significant response"}
    ]},
    {"compound": "CPDAVYTCRPGQTCCRGLHGYGCC (also: bicyclic or more (positions not given here)) [GRN-P4A isomer 4]", "values": [
      {"measurement": "Cell proliferation at higher concentrations", "setting": "[1]; LX-2 cells, xCELLigence, statement in the Discussion, tested up to 800 nM", "value": "promoted cell proliferation at higher concentrations"},
      {"measurement": "Proliferative response of LX-2 cells at concentrations up to 400 nM", "setting": "[1]; xCELLigence, listed as isomer 4", "value": "did not produce a statistically significant response"}
    ]},
    {"compound": "CPDAVYTCRPGQTCCRGLHGYGCC (also: bicyclic or more (positions not given here)) [GRN-P4A, 24-residue peptide containing three disulfide bonds engineered from liver-fluke granulin Ov-GRN-1]", "values": [
      {"measurement": "Wound healing activity in a mouse model", "setting": "[3]", "value": "enhanced wound healing activity"}
    ]}
  ]
}
